Source: paper PMC8764529, “Diversification by CofC and Control by CofD Govern Biosynthesis and Evolution of Coenzyme F420 and Its Derivative 3PG-F420” (mBio, 2022)

Columns and labels:
Mmaz-CofC = molecular target: T1, Mmaz-CofC (Methanosarcina mazei, UniProt Q8PU52); experiment: combined CofC/D assay, LC-MS; assay type: biochemical; details: competitive mixture of 3-PG, 2-PL, PEP (0.5 mM each), 2 mM GTP, 2 mM MgCl2, FO, Mjan-CofD, pH 7.4
T1 construct: N-terminal His6, E. coli
T1 sequence (Q8PU52 1-208): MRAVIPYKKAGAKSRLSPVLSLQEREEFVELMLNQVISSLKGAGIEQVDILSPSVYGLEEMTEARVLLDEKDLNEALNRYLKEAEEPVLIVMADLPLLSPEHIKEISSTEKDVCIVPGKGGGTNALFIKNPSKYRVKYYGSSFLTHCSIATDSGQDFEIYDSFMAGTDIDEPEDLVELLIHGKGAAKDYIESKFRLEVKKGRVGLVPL

CofC (Ca. E. factor) = molecular target: T2, CofC (Ca. E. factor) (Candidatus Entotheonella factor, UniProt W4LIL2); experiment: combined CofC/D assay, LC-MS; assay type: biochemical; details: competitive mixture of 3-PG, 2-PL, PEP (0.5 mM each), 2 mM GTP, 2 mM MgCl2, FO, Mjan-CofD, pH 7.4
T2 construct: gene ETSY1_21445; N-terminal His6, E. coli

[1] = molecular target: T3, CofC (Oligotropha carboxidovorans) (Afipia carboxidovorans, UniProt B6JBS5); experiment: combined CofC/D assay, LC-MS; assay type: biochemical; details: competitive mixture of 3-PG, 2-PL, PEP (0.5 mM each), 2 mM GTP, 2 mM MgCl2, FO, Mjan-CofD, pH 7.4
T3 construct: gene fbiD; N-terminal His6, E. coli
T3 sequence (B6JBS5 1-237): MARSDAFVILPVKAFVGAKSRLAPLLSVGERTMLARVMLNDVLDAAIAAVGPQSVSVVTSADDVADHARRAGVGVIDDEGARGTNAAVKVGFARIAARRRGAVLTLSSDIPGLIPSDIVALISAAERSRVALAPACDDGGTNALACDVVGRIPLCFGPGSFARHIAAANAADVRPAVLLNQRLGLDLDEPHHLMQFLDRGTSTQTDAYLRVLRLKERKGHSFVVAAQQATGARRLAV

[2] = molecular target: T4, CofC (Paracoccus denitrificans) (Paracoccus denitrificans, UniProt A1B131); experiment: combined CofC/D assay, LC-MS; assay type: biochemical; details: competitive mixture of 3-PG, 2-PL, PEP (0.5 mM each), 2 mM GTP, 2 mM MgCl2, FO, Mjan-CofD, pH 7.4
T4 construct: gene Pden_1117; N-terminal His6, E. coli
T4 sequence (A1B131 1-216): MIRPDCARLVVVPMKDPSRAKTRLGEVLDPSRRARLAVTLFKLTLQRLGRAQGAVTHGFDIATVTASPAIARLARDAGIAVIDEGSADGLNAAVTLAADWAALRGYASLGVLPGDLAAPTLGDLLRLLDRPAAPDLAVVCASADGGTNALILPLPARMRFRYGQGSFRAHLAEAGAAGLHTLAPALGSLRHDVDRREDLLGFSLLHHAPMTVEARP

Msmeg-FbiD = molecular target: T5, Msmeg-FbiD (Mycolicibacterium smegmatis, UniProt A0QUZ4); experiment: combined CofC/D assay, LC-MS; assay type: biochemical; details: competitive mixture of 3-PG, 2-PL, PEP (0.5 mM each), 2 mM GTP, 2 mM MgCl2, FO, Mjan-CofD, pH 7.4
T5 construct: N-terminal His6, full length, E. coli (plasmid pMH10)

[3] = molecular target: T6, CofC (Thermomicrobium roseum) (Thermomicrobium roseum, UniProt B9L4T8); experiment: combined CofC/D assay, LC-MS; assay type: biochemical; details: competitive mixture of 3-PG, 2-PL, PEP (0.5 mM each), 2 mM GTP, 2 mM MgCl2, FO, Mjan-CofD, pH 7.4
T6 construct: gene fbiD; N-terminal His6, E. coli
T6 sequence (B9L4T8 1-200): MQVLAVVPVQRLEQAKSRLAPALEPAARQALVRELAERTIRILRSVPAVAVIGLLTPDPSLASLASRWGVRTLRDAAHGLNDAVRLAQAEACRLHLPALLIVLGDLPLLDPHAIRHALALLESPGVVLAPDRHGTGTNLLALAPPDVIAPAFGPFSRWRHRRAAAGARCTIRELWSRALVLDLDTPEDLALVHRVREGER

CofC (Archaeon GBE54128) = molecular target: T7, CofC (Archaeon GBE54128) (archaeon BMS3Bbin15, UniProt A0A2H6JTR5); experiment: combined CofC/D assay, LC-MS; assay type: biochemical; details: competitive mixture of 3-PG, 2-PL, PEP ([…] each), […] GTP, […] MgCl2, FO, Mjan-CofD, pH […]
T7 construct: N-terminal His6, E. coli; synthetic gene
T7 sequence (A0A2H6JTR5 1-207): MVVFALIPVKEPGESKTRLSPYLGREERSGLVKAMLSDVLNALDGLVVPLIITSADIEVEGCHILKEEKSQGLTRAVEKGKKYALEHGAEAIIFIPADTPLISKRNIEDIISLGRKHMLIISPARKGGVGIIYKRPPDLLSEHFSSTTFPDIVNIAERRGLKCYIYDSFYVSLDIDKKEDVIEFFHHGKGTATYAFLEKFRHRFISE

CofC (Ca. H. archaeon) = molecular target: T8, CofC (Ca. H. archaeon) (Candidatus Hydrothermarchaeota archaeon, UniProt A0A497JEJ7); experiment: combined CofC/D assay, LC-MS; assay type: biochemical; details: competitive mixture of 3-PG, 2-PL, PEP ([…] each), […] GTP, […] MgCl2, FO, Mjan-CofD, pH […]
T8 construct: N-terminal His6, E. coli; synthetic gene; full organism name only in supplement
T8 sequence (A0A497JEJ7 1-207): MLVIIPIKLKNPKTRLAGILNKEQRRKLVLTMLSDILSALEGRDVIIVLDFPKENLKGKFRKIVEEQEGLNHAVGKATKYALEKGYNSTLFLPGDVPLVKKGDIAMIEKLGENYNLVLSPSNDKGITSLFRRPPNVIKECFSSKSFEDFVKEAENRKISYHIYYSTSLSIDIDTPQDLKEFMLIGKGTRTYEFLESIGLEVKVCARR

Mrhiz-CofC = molecular target: T9, Mrhiz-CofC (Mycetohabitans rhizoxinica, UniProt E5ASS2); experiment: combined CofC/D assay, LC-MS; assay type: biochemical; details: competitive mixture of 3-PG, 2-PL, PEP (0.5 mM each), 2 mM GTP, 2 mM MgCl2, FO, cognate CofD, pH 7.4
T9 construct: N-terminal His6, full length, E. coli (plasmid pFS03)

Mjan-CofD = molecular target: T10, Mjan-CofD (Methanocaldococcus jannaschii, UniProt Q58653); experiment: combined CofC/D assay, LC-MS; assay type: biochemical; details: coupled to CofC homologs forming LPPG, EPPG or GPPG; 2 mM GTP, 2 mM MgCl2, pH 7.4
T10 construct: N-terminal His6, E. coli

CofC (nano-DSF) = molecular target: T11, CofC (nano-DSF); experiment: nano-DSF; assay type: binding; details: GPPG co-purified with the enzyme may be present
T11 construct: N-terminal His6, E. coli; Results place the test beside MycB3-CofC, Discussion names M. rhizoxinica

T2 sequence (W4LIL2 entry or part of it): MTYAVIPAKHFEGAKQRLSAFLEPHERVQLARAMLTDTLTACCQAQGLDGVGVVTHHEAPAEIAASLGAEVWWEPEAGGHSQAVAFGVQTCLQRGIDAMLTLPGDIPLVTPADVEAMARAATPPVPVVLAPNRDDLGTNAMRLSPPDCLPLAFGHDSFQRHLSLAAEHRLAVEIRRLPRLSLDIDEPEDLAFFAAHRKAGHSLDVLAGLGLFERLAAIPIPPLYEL
T5 sequence (A0QUZ4 whole entry): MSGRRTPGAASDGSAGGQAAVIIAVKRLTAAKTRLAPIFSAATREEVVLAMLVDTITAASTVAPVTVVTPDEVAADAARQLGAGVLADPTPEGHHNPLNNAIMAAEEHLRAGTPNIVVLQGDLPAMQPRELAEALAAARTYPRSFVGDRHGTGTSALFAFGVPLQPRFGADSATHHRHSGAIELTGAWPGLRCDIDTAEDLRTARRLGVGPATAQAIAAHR
T10 sequence (Q58653 whole entry): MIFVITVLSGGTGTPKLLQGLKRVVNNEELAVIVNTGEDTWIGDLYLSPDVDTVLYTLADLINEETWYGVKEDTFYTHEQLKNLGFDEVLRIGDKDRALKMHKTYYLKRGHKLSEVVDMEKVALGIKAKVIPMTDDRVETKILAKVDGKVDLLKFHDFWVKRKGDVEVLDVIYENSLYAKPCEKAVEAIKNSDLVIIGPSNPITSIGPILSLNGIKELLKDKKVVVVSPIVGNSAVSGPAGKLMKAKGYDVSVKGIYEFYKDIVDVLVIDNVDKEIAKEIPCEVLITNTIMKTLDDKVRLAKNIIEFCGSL
T9 sequence (E5ASS2 6-221): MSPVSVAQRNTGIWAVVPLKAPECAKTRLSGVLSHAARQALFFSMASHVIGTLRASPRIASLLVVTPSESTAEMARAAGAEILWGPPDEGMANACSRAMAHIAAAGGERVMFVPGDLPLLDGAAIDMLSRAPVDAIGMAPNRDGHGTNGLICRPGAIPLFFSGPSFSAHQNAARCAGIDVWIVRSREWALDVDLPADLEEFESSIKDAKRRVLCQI

Q: C[C@H](OP(=O)(O)O)C(=O)O [2-PL] was tested. Which “combined CofC/D assay, LC-MS” value (Mmaz-CofC) did it give?
A: Its value is “For all CofC-related enzymes analyzed, 2-PL was used most efficiently”.

Q: What about the “combined CofC/D assay, LC-MS” value (CofC (Ca. E. factor)) of the same compound?
A: Its value is “For all CofC-related enzymes analyzed, 2-PL was used most efficiently”.

Q: What about the “combined CofC/D assay, LC-MS” value [1] of the same compound?
A: The value was “For all CofC-related enzymes analyzed, 2-PL was used most efficiently”.

Q: What about the “combined CofC/D assay, LC-MS” value [2] of the same compound?
A: The value was “For all CofC-related enzymes analyzed, 2-PL was used most efficiently”.

Q: What about the “combined CofC/D assay, LC-MS” value (Msmeg-FbiD) of the same compound?
A: The value was “the M. smegmatis FbiD tested in this study preferred 2-PL as substrate”.

Q: And the “combined CofC/D assay, LC-MS” value [3]?
A: The value was “For all CofC-related enzymes analyzed, 2-PL was used most efficiently”.

Q: And the “combined CofC/D assay, LC-MS” value (CofC (Archaeon GBE54128))?
A: The value was 2-PL was the best substrate of all three enzymes.

Q: What about the “combined CofC/D assay, LC-MS” value (CofC (Ca. H. archaeon)) of the same compound?
A: The value was 2-PL was the best substrate of all three enzymes.

Q: Which results are given for O=C(O)[C@H](O)COP(=O)(O)O [3-PG]?
A: combined CofC/D assay, LC-MS (Mrhiz-CofC): combined with their cognate CofD, the apparent substrate specificity shifted almost completely toward 3-PG; combined CofC/D assay, LC-MS (CofC (Archaeon GBE54128)): all of those enzymes accepted 3-PG as substrates; combined CofC/D assay, LC-MS (CofC (Ca. H. archaeon)): all of those enzymes accepted 3-PG as substrates

Q: Which “combined CofC/D assay, LC-MS” value (Mjan-CofD) does the source give for O=c1nc2n(C[C@H](O)[C@H](O)[C@H](O)CO)c3cc(O)ccc3cc-2c(=O)[nH]1 [FO, 7,8-didemethyl-8-hydroxy-5-deazariboflavin] here?
A: Its value is “Distinct derivatives of F420-0 were produced via biochemical reaction of purified CofC and CofD”.

Q: Which Kd (CofC (nano-DSF)) does the source give for Nc1nc2c(ncn2[C@@H]2O[C@H](COP(=O)(O)OP(=O)(O)OP(=O)(O)O)[C@@H](O)[C@H]2O)c(=O)[nH]1 [GTP] here?
A: The Kd was under 20 µM.
